Read-outs that look alike come from different tables or passages of the source.
Columns and labels:
Pyricularia oryzae [1] = type: in vivo; settings: rice seedlings (Aichi Asahi), wettable powder sprayed at 500 ppm active ingredient, 10 ml per pot; examined 5 days after inoculation
Pyricularia oryzae [2] = type: in vivo; settings: paddy rice (Aichi Asahi), wettable powder on water surface, 1,000 g active ingredient per 10 ares; inoculated 10 days after application, examined 5 days after inoculation
Pyricularia oryzae [3] = type: in vivo; settings: rice (Aichi Asahi), granule applied to seedling-raising box, 12 g active ingredient per box; inoculated 40 days after application, examined 6 days after inoculation
Septoria nodorum = assay: Test for control effect on Septoria leaf spot of wheat; type: in vivo; settings: wheat seedlings (Nohrin No. 61), wettable powder at 500 ppm, 10 ml per pot; examined 10 days after inoculation
Text: Test for Control Effect on Septoria Leaf Spot of Wheat
In each of plastic pots of 6 cm in diameter were sown 10 wheat seeds (variety: Nohrin No. 61). They were allowed to germinate in a greenhouse. […] After air-drying, the seedlings were inoculated with pycnospores of Septoria nodorum and the pot was placed in a greenhouse. After 10 days from the inoculation, the total diseased area of all the first leaves in the pot was examined.

[4] = tested on: Pseudoperonospora cubensis; settings: cucumber seedlings (sagami hanjiro), wettable powder at 500 ppm, 15 ml per pot; examined 7 days later
Method: 10 cucumber seeds (variety: sagami hanjiro) were sown in each of vinyl chloride resin made pots of 9 cm×9 cm and were allowed to germinate in a greenhouse for 7 days. The resulting cucumber young seedlings which reached a cotyledon stage were used as a sample plant. […] The plant was air-dried and inoculated, by spraying, with a suspension of conidia of Pseudoperonospora cubensis. Immediately, the pot was placed in a wet house of 20° C. for 24 hours. Then, the pot was transferred into a greenhouse. 7 days later, the total diseased area of all the cotyledons in the pot was examined.

Erysiphe graminis = assay: Test for control effect on powdery mildew of wheat; type: in vivo; settings: wheat seedlings (Nohrin No. 61), wettable powder at 500 ppm, 10 ml per pot; inoculated 7 days after application, examined 8 days after inoculation
Text: Test for Control Effect on Powdery Mildew of Wheat
In each of plasic pots of 6 cm in diameter were sown 10 wheat seeds (variety: Nohrin No. 61). They were allowed to germinate in a greenhouse. […] After 7 days from the application, the seedlings were inoculated, by spraying, with conidia of Erysiphe graminis. After 8 days from the inoculation, the total infected area of all the first leaves in the pot was examined.

Structure (SMILES) | Evaluation (preventive value, number of lesions of the fourth leaf) (Pyricularia oryzae [1]) | Evaluation (preventive value, number of lesions of the upper young leaf) (Pyricularia oryzae [2]) | Evaluation (total diseased area of all the first leaves) (Septoria nodorum) | further results
CCOC(=O)N1C(=S)c2ccccc2S1(=O)=O [Compound No. 5, 2-ethoxycarbonyl-1,2-benzisothiazoline-3-thioxo-1,1-dioxide] | B (Less than 100 to 80.0 or more) | B (Less than 100 to 80.0 or more) | B (Less than 25% of untreated plot) | Evaluation (preventive value, number of lesions of the upper young leaf) (Pyricularia oryzae [3]): B (Less than 100 to 80.0 or more)
CC(C)N1C(=S)c2ccccc2S1(=O)=O [Compound No. 11] |  | B (Less than 100 to 80.0 or more) |  | 
O=S1(=O)c2ccccc2C(=S)N1CC=CCl [Compound No. 50] |  |  | B (Less than 25% of untreated plot) | Evaluation (total diseased area of all the cotyledons) [4]: B (Less than 25% of untreated plot)
C=CCOC1=NS(=O)(=O)c2ccccc21 [Probenazole, reference compound] |  | B (Less than 100 to 80.0 or more) |  | Evaluation (preventive value, number of lesions of the upper young leaf) (Pyricularia oryzae [3]): B (Less than 100 to 80.0 or more)
CCOCN1C(=S)c2ccccc2S1(=O)=O [compound 3, 2-ethoxymethyl-1,2-benzisothiazoline-3-thioxo-1,1-dioxide] | B (Less than 100 to 80.0 or more) | B (Less than 100 to 80.0 or more) |  | Evaluation (preventive value, number of lesions of the upper young leaf) (Pyricularia oryzae [3]): B (Less than 100 to 80.0 or more)
CCCOC(=O)N1C(=S)c2ccccc2S1(=O)=O [compound 6] | A (100) | B (Less than 100 to 80.0 or more) | B (Less than 25% of untreated plot) | Evaluation (total diseased area of all the cotyledons) [4]: B (Less than 25% of untreated plot)
C=CCOC(=O)N1C(=S)c2ccccc2S1(=O)=O [compound 7] | B (Less than 100 to 80.0 or more) | B (Less than 100 to 80.0 or more) | B (Less than 25% of untreated plot) | 
C#CCOC(=O)N1C(=S)c2ccccc2S1(=O)=O [compound 8] | B (Less than 100 to 80.0 or more) | B (Less than 100 to 80.0 or more) |  | Evaluation (total infected area of all the first leaves) (Erysiphe graminis): B (Less than 25% of untreated plot)
CC(C)COC(=O)N1C(=S)c2ccccc2S1(=O)=O [compound 9] | B (Less than 100 to 80.0 or more) | B (Less than 100 to 80.0 or more) | B (Less than 25% of untreated plot) | Evaluation (total diseased area of all the cotyledons) [4]: B (Less than 25% of untreated plot)
O=C(Oc1ccc(Cl)cc1)N1C(=S)c2ccccc2S1(=O)=O [compound 10] |  | B (Less than 100 to 80.0 or more) | B (Less than 25% of untreated plot) | 
CSCN1C(=S)c2ccccc2S1(=O)=O [compound 17] |  | B (Less than 100 to 80.0 or more) |  | 
N#CCN1C(=S)c2ccccc2S1(=O)=O [compound 19] |  | B (Less than 100 to 80.0 or more) |  | 
O=[N+]([O-])CN1C(=S)c2ccccc2S1(=O)=O [compound 20] |  | B (Less than 100 to 80.0 or more) |  | 
CC(=O)N1C(=S)c2ccccc2S1(=O)=O [compound 22] |  | B (Less than 100 to 80.0 or more) |  | 
COC(=O)N1C(=S)c2ccccc2S1(=O)=O [compound 23] |  | B (Less than 100 to 80.0 or more) |  | 
CC(C)OC(=O)N1C(=S)c2ccccc2S1(=O)=O [compound 24] |  | B (Less than 100 to 80.0 or more) |  | 

Structure (SMILES) | Evaluation (preventive value, number of lesions of the fourth leaf) (Pyricularia oryzae [1]) | Evaluation (preventive value, number of lesions of the upper young leaf) (Pyricularia oryzae [2]) | Evaluation (total diseased area of all the first leaves) (Septoria nodorum) | further results
O=C(Oc1ccccc1)N1C(=S)c2ccccc2S1(=O)=O [compound 25] |  | B (Less than 100 to 80.0 or more) |  | 
CCC(=O)N1C(=S)c2ccccc2S1(=O)=O [compound 27] | B (Less than 100 to 80.0 or more) |  |  | 
O=S1(=O)c2ccccc2C(=S)N1C1CCCC1 [compound 29] |  |  | B (Less than 25% of untreated plot) | 
O=C(OCCCl)N1C(=S)c2ccccc2S1(=O)=O [compound 30] | B (Less than 100 to 80.0 or more) |  | B (Less than 25% of untreated plot) | 
CCCCOC(=O)N1C(=S)c2ccccc2S1(=O)=O [compound 31] |  | B (Less than 100 to 80.0 or more) | B (Less than 25% of untreated plot) | 
O=[N+]([O-])CCN1C(=S)c2ccccc2S1(=O)=O [compound 39] | B (Less than 100 to 80.0 or more) | B (Less than 100 to 80.0 or more) | B (Less than 25% of untreated plot) | 
CC(C[N+](=O)[O-])N1C(=S)c2ccccc2S1(=O)=O (stereo not shown) [compound 40] | B (Less than 100 to 80.0 or more) | B (Less than 100 to 80.0 or more) | B (Less than 25% of untreated plot) | 
CCOC(=O)C(C(=O)OCC)N1C(=S)c2ccccc2S1(=O)=O [compound 42] |  |  |  | Evaluation (total diseased area of all the cotyledons) [4]: B (Less than 25% of untreated plot)
CON1C(=S)c2ccccc2S1(=O)=O [compound 43, 2-methoxy-1,2-benzisothiazoline-3-thioxo-1,1-dioxide] | B (Less than 100 to 80.0 or more) | B (Less than 100 to 80.0 or more) |  | 
O=S1(=O)c2ccccc2C(=S)N1CBr [compound 44, 2-bromomethyl-1,2-benzisothiazoline-3-thioxo-1,1-dioxide] | B (Less than 100 to 80.0 or more) | B (Less than 100 to 80.0 or more) | B (Less than 25% of untreated plot) | 
O=S1(=O)c2ccccc2C(=S)N1CCl [compound 45] | A (100) | B (Less than 100 to 80.0 or more) |  | 
O=C(OCN1C(=S)c2ccccc2S1(=O)=O)c1ccccc1 [compound 46, 2-benzoyloxymethyl-1,2-benzisothiazoline-3-thioxo-1,1-dioxide] | B (Less than 100 to 80.0 or more) | B (Less than 100 to 80.0 or more) |  | 
O=C(OCN1C(=S)c2ccccc2S1(=O)=O)c1cc(Cl)nc(Cl)c1 [compound 47] |  | B (Less than 100 to 80.0 or more) |  | Evaluation (preventive value, number of lesions of the upper young leaf) (Pyricularia oryzae [3]): B (Less than 100 to 80.0 or more)
N#CSCN1C(=S)c2ccccc2S1(=O)=O [compound 48] | B (Less than 100 to 80.0 or more) |  | B (Less than 25% of untreated plot) | Evaluation (total diseased area of all the cotyledons) [4]: B (Less than 25% of untreated plot)
Cc1nnsc1C(=O)OCN1C(=S)c2ccccc2S1(=O)=O [compound 49] | B (Less than 100 to 80.0 or more) |  |  | 
COCCN1C(=S)c2ccccc2S1(=O)=O [compound 53] |  |  |  | Evaluation (total diseased area of all the cotyledons) [4]: B (Less than 25% of untreated plot)
